Test results: PubChem BioAssay (NCI)
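Briefly, cells in 96-well plates were exposed to five compound concentrations for 48 h, and endpoints were estimated by linear interpolation. GI50 marks 50% less growth. TGI: concentration producing complete growth inhibition.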

Columns and labels:
Experiment in all cases: DTP human tumour cell line panel, 48 h
[1] = test system: MDA-MB-231 breast
[2] = test system: SK-MEL-5 melanoma
[3] = test system: SF-268 CNS
[4] = test system: KM12 colon
[5] = test system: HCT-15 colon
[6] = test system: SR leukemia
[7] = test system: UO-31 renal
[8] = test system: RXF 393 renal
[9] = test system: NCI/ADR-RES ovarian
[10] = test system: SK-MEL-2 melanoma
[11] = test system: OVCAR-3 ovarian
[12] = test system: U251 CNS
[13] = test system: OVCAR-8 ovarian
[14] = test system: TK-10 renal
[15] = test system: HL-60(TB) leukemia
[16] = test system: OVCAR-4 ovarian
[17] = test system: HOP-62 NSCLC
[18] = test system: UACC-257 melanoma
[19] = test system: ACHN renal
[20] = test system: SF-539 CNS
[21] = test system: CAKI-1 renal
[22] = test system: CCRF-CEM leukemia
[23] = test system: A498 renal
[24] = test system: NCI-H460 lung
[25] = test system: RPMI-8226 leukemia
[26] = test system: PC-3 prostate
[27] = test system: NCI-H23 lung
[28] = test system: NCI-H522 lung
[29] = test system: HOP-92 NSCLC
[30] = test system: MDA-MB-435
[31] = test system: SNB-75 CNS
[32] = test system: MCF7 breast
[33] = test system: T-47D breast
[34] = test system: SW-620 colon
[35] = test system: BT-549 breast
[36] = test system: HT29 colon
[37] = test system: HCC-2998 colon
[38] = test system: SF-295 CNS
[39] = test system: COLO 205 colon
[40] = test system: DU-145 prostate
[41] = test system: MALME-3M melanoma
[42] = test system: K-562 leukemia
[43] = test system: SK-MEL-28 melanoma
[44] = test system: OVCAR-5 ovarian
[45] = test system: 786-0 renal
[46] = test system: EKVX NSCLC
[47] = test system: M14 melanoma
[48] = test system: SK-OV-3 ovarian
[49] = test system: A549 NSCLC
[50] = test system: MOLT-4 leukemia

With `CCN(CC)CCCC(Nc1c2ccc(Cl)cc2nc2ccc(OC)cc12)c1ccc(Cl)cc1` (stereo not given) the GI50 [1] was 0.67 µM, the TGI [1] was 2.24 µM and the GI50 [2] was 1.25 µM. For the same compound, the TGI [2] was 2.54 µM, the GI50 [3] was 1.43 µM and the TGI [3] was 3.05 µM. The GI50 [4] was 1.52 µM, the TGI [4] was 2.99 µM and the GI50 [5] was 0.404 µM. The TGI [5] was 1.59 µM, the GI50 [6] was 0.217 µM and the TGI [6] was 0.512 µM. The GI50 [7] was 1.58 µM, the TGI [7] was 3.08 µM and the GI50 [8] was 1.03 µM. The TGI [8] was 2.31 µM, the GI50 [9] was 1.47 µM and the TGI [9] was 3.08 µM. For the same compound, the GI50 [10] was 1.89 µM, the TGI [10] was 3.63 µM and the GI50 [11] was 1.22 µM. It also gave a TGI [11] of 2.75 µM, a GI50 [12] of 0.579 µM and a TGI [12] of 1.83 µM. It also gave a GI50 [13] of 1.05 µM, a TGI [13] of 2.47 µM and a GI50 [14] of 1.62 µM. The TGI [14] was 3.14 µM, the GI50 [15] was 1.48 µM and the TGI [15] was 3.23 µM. For the same compound, the GI50 [16] was 1.13 µM, the TGI [16] was 3.17 µM and the GI50 [17] was 1.61 µM. For the same compound, the TGI [17] was 3.14 µM, the GI50 [18] was 1.68 µM and the TGI [18] was 3.22 µM. For the same compound, the GI50 [19] was 1.38 µM, the TGI [19] was 2.81 µM and the GI50 [20] was 1.56 µM. It also gave a TGI [20] of 3.1 µM, a GI50 [21] of 1.17 µM and a TGI [21] of 2.44 µM. It also gave a GI50 [22] of 0.53 µM, a TGI [22] of 2.07 µM and a GI50 [23] of 1.26 µM. For the same compound, the TGI [23] was 2.64 µM, the GI50 [24] was 1.33 µM and the TGI [24] was 2.88 µM. For the same compound, the GI50 [25] was 0.449 µM, the TGI [25] was 1.8 µM and the GI50 [26] was 1.55 µM. It also gave a TGI [26] of 3.04 µM, a GI50 [27] of 1.43 µM and a TGI [27] of 2.98 µM. It also gave a GI50 [28] of 1.46 µM, a TGI [28] of 3.09 µM and a GI50 [29] of 1.15 µM. It also gave a TGI [29] of 2.81 µM, a GI50 [30] of 0.576 µM and a TGI [30] of 1.93 µM. The GI50 [31] was 1.16 µM, the TGI [31] was 2.44 µM and the GI50 [32] was 0.348 µM. For the same compound, the TGI [32] was 1.43 µM, the GI50 [33] was 1.85 µM and the TGI [33] was 3.96 µM. The GI50 [34] was 1.37 µM, the TGI [34] was 2.99 µM and the GI50 [35] was 1.7 µM. The TGI [35] was 3.47 µM, the GI50 [36] was 0.45 µM and the TGI [36] was 1.75 µM. It also gave a GI50 [37] of 1.47 µM, a TGI [37] of 3.01 µM and a GI50 [38] of 1.3 µM. It also gave a TGI [38] of 2.77 µM, a GI50 [39] of 1.31 µM and a TGI [39] of 2.87 µM. For the same compound, the GI50 [40] was 1.52 µM, the TGI [40] was 3.03 µM and the GI50 [41] was 1.88 µM. It also gave a TGI [41] of 3.55 µM, a GI50 [42] of 0.221 µM and a TGI [42] of 0.432 µM. The GI50 [43] was 1.34 µM, the TGI [43] was 2.9 µM and the GI50 [44] was 1.74 µM. For the same compound, the TGI [44] was 3.36 µM, the GI50 [45] was 1.29 µM and the TGI [45] was 2.91 µM. For the same compound, the GI50 [46] was 1.35 µM, the TGI [46] was 2.96 µM and the GI50 [47] was 0.199 µM. For the same compound, the TGI [47] was 0.411 µM, the GI50 [48] was 2.05 µM and the TGI [48] was 3.89 µM. For the same compound, the GI50 [49] was 1.52 µM, the TGI [49] was 3.05 µM and the GI50 [50] was 0.761 µM. It also gave a TGI [50] of 2.3 µM.
